Source: paper PMC3771382 (ChemMedChem, 2012)

What was measured:
human GLP-1R = human GLP-1R (Homo sapiens, UniProt P43220); assay: RIP1-CRE-Luc luciferase reporter; format: cell-based; conditions: HEK-GLP-1R cells transfected with RIP1-CRE-Luc; 4 h exposure
[1] = ref [8],[9]; cited from earlier work
[2] = tested on: dipeptidyl peptidase IV (DPP-IV); conditions: ref [8],[9]; cited from earlier work

human GLP-1R, sequence (P43220 24-463): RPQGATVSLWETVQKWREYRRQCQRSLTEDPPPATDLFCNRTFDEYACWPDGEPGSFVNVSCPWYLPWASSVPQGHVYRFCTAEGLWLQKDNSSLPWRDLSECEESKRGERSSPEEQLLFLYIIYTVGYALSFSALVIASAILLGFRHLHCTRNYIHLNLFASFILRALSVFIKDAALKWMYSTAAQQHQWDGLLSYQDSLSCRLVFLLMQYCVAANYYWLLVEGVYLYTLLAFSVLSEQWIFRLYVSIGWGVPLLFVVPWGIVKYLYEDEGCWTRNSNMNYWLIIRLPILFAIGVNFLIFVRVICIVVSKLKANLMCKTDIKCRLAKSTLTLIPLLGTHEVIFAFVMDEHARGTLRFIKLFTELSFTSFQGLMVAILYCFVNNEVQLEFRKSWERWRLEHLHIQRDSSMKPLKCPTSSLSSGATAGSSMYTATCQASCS

| Compound | luciferase response (in words) (human GLP-1R) | fraction of secreted GLP-1 surviving intact to the systemic circulation [1] | t1/2, degradation by DPP-IV [2] |
| --- | --- | --- | --- |
| CC[C@H](C)[C@H](NC(=O)[C@H](Cc1ccccc1)NC(=O)[C@H](CCC(=O)O)NC(=O)[C@H](CCCCNC(=O)OC[C@H]1O[C@H](n2cnc3cc(C)c(C)cc32)[C@H](O)[C@@H]1OP(=O)(O)O[C@H](C)CNC(=O)CC[C@@]1(C)/C2=C(\C)C3=N/C(=C\C4=NC(=C(/C)C5=N[C@@](C)([C@H](N2)[C@@H]1CC(N)=O)[C@@](C)(CC(N)=O)[C@@H]5CCC(N)=O)/[C@@](C)(CC(N)=O)[C@@H]4CCC(N)=O)C(C)(C)[C@@H]3CCC(N)=O)NC(=O)[C@H](C)NC(=O)[C@H](C)NC(=O)[C@H](CCC(N)=O)NC(=O)CNC(=O)[C@H](CCC(=O)O)NC(=O)[C@H](CC(C)C)NC(=O)[C@H](Cc1ccc(O)cc1)NC(=O)[C@H](CO)NC(=O)[C@H](CO)NC(=O)[C@@H](NC(=O)[C@H](CC(=O)O)NC(=O)[C@H](CO)NC(=O)[C@@H](NC(=O)[C@H](Cc1ccccc1)NC(=O)[C@@H](NC(=O)CNC(=O)[C@H](CCC(=O)O)NC(=O)[C@H](C)NC(=O)[C@@H](N)Cc1c[nH]cn1)[C@@H](C)O)[C@@H](C)O)C(C)C)C(=O)N[C@@H](C)C(=O)N[C@@H](Cc1c[nH]c2ccccc12)C(=O)N[C@@H](CC(C)C)C(=O)N[C@H](C(=O)N[C@@H](CCCNC(=N)N)C(=O)NCC(=O)N[C@@H](CCCNC(=N)N)C(N)=O)C(C)C [compound 1] | concentration-dependent response |  |  |
| glucagon-like peptide-1 (7–36) amide [GLP-1] |  | 10–15% | 1 to 2 min |
| cyanocobalamin [B12] | did not produce any response |  |  |
